For five molecules, IC50 results are on record in patent US11180497B2 (ANGEX PHARMACEUTICAL, INC., priority 2017, dated 2021).

Each structure is given as a SMILES string. Where only a bound is given, the exact number is not on record here.

The IC50 is the point on the concentration scale where inhibition reaches its midpoint.

The experiment deals with T1, Human IDO (Homo sapiens, UniProt P14902).
T1 construct: High control is Hela cells with IFNγ treatment; endogenous in cells; host or cells: HeLa cells treated with 25 ng/ml IFNγ
T1 sequence (P14902 whole entry): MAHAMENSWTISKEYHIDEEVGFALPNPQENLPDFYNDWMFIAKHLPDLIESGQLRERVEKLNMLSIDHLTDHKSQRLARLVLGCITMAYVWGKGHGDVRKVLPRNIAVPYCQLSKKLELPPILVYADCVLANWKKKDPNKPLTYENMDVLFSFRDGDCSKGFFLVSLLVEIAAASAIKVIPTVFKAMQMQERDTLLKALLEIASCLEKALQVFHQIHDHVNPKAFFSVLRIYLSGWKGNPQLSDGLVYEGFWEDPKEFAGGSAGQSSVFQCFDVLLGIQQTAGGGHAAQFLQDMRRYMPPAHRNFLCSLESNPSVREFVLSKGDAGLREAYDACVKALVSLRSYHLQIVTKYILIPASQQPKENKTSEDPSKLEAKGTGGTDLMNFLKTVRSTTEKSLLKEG
Kind of experiment: HeLa cell IDO assay (IFNγ-treated cells, N-formylkynurenine by RapidFire/MS/MS). Format: cell-based. As to conditions: 25 ng/ml IFNγ, 200 μM Trp, 48 hours, class symbol.
Molecule `O=C(Nc1ccc(Cl)cc1)C1([C@H]2CC[C@@H](c3ccnc4ccc(F)cc43)CC2)CC1` [Compound 24-5A, N-(4-chlorophenyl)-1-(4-(6-fluoroquinolin-4-yl)cyclohexyl)cyclopropyl-1-carboxamide] displayed an IC50 of less than 100 nM.
Next, `O=C(Nc1ccc(Cl)cc1)C1([C@H]2CC[C@H](c3ccnc4ccc(F)cc43)CC2)CC1` [Compound 24-5B, N-(4-chlorophenyl)-1-(4-(6-fluoroquinolin-4-yl)cyclohexyl)cyclopropyl-1-carboxamide]: less than 100 nM; `O=C(Nc1ccc(Cl)cc1)C1(C2CCN(c3ccnc4ccc(F)cc34)CC2)CC1` [Compound 26-8, N-(4-chlorophenyl)-1-[1-(6-fluoroquinolin-4-yl)piperidin-4-yl]cyclopropane-1-carboxamide]: less than 100 nM; `O=C(NC1(C2CCN(c3ccnc4ccc(F)cc34)CC2)CC1)c1ccc(Cl)cc1` [Compound 27-3, 4-chloro-N-[1-[1-(6-fluoroquinolin-4-yl)piperidin-4-yl]cyclopropyl]benzamide]: 100 to 1000 nM.
Next, `O=C(Nc1ccc(Cl)cc1)C1(C2CCC(c3ccnc4ccncc34)CC2)CC1` (centres unmarked) [Compound 28-5, 1-(4-(1,6-naphthyridin-4-yl)cyclohexyl)-N-(4-chlorophenyl)cyclopropane-1-carboxamide]: less than 100 nM.
